In patent publication US20210387966A1, “2-AMINO-N-HETEROARYL-NICOTINAMIDES AS NAV1.8 INHIBITORS” (Merck Sharp & Dohme Corp., priority 2018, published 2021):

Molecular target: T1, human Nav1.8 channels (Homo sapiens, UniProt Q9Y5Y9)
T1 construct: expressed in transfected cells
Assay: Nav1.8 Qube automated patch-clamp assay
Type: cell-based
Settings: human Nav1.8 stably expressed in HEK 293 cells; whole-cell voltage clamp, room temperature; resting or inactivated state not specified; read-out: IC50 values (nM) for Examples in the Nav1.8 Qube Assay
Method: Compounds were tested on human Nav1.8 and Nav1.5 channels stably expressed in human embryo kidney (HEK) 293 cells. Sodium current measurements on Qube® were conducted as follows: automated 384-well patch-clamp assays on the Qube® platform (Sophion Biosciences) were used to measure the inhibition of sodium flow through human Nav1.8 and Nav1.5 channels. Whole-cell voltage-clamp recordings were performed in QChips® (Sophion Biosciences) at room temperature. Nav1.8 current measurements on Qube® were obtained as follows: Nav1.8 currents were elicited with a 10 second 1 Hertz (Hz) pulse train from a holding potential of −90 millivolts (mV), delivered to the cells once per minute in the control condition (DMSO only) and after compound addition. The 1 hertz pulse train stimulation consisted of ten test pulses to 10 millivolt (mV) for 20 milliseconds (ms), each of which was followed by a 980 millisecond repolarization to −67 millivolts. At the end of the 10 second pulse train stimulation, a second hyperpolarization step to −100 millivolt (mV) was used to recover Nav1.8 from fast inactivation. The peak currents elicited by the 1st and 10th test pulses were used to determine IC50 values for resting inhibition and inactivated state inhibition. Nav1.5 current measurements on Qube® were obtained as follows: Nav1.5 currents were elicited with a 20 second 3 Hertz pulse train in the control condition (DMSO only) and after compound addition. The pulse train consisted of sixty 20 millisecond test pulses to 0 millivolt from a holding potential of −80 millivolt (mV). The average peak currents elicited by the last 3 test pulses were used to determine IC50 values for Nav1.5 inhibition.
The following buffers were used for the Qube® recordings: External buffer for Nav1.8 Qube® recording: 150 NaCl, 2 CaCl2, 5 KCl, 1 Mg Cl2, 10 HEPES, 12 Dextrose; External buffer for Qube® Nav1.5 recording: 120 N-Methyl-D-Glucamine, 40 NaCl, 1 KCl, 2.7 CaCl2, 5 HEPES, 0.5 MgCl2: and Internal buffer for Qube® recording: 120 CsF, 30 CsCl, 10 EGTA, 5 HEPES, 5 NaF, 2 MgCl2.
For all Qube® experiments offline analysis was used to determine percent inhibition as a function of drug concentration. IC50 values were determined by fitting to the Hill equation.

T1 sequence (Q9Y5Y9 whole entry): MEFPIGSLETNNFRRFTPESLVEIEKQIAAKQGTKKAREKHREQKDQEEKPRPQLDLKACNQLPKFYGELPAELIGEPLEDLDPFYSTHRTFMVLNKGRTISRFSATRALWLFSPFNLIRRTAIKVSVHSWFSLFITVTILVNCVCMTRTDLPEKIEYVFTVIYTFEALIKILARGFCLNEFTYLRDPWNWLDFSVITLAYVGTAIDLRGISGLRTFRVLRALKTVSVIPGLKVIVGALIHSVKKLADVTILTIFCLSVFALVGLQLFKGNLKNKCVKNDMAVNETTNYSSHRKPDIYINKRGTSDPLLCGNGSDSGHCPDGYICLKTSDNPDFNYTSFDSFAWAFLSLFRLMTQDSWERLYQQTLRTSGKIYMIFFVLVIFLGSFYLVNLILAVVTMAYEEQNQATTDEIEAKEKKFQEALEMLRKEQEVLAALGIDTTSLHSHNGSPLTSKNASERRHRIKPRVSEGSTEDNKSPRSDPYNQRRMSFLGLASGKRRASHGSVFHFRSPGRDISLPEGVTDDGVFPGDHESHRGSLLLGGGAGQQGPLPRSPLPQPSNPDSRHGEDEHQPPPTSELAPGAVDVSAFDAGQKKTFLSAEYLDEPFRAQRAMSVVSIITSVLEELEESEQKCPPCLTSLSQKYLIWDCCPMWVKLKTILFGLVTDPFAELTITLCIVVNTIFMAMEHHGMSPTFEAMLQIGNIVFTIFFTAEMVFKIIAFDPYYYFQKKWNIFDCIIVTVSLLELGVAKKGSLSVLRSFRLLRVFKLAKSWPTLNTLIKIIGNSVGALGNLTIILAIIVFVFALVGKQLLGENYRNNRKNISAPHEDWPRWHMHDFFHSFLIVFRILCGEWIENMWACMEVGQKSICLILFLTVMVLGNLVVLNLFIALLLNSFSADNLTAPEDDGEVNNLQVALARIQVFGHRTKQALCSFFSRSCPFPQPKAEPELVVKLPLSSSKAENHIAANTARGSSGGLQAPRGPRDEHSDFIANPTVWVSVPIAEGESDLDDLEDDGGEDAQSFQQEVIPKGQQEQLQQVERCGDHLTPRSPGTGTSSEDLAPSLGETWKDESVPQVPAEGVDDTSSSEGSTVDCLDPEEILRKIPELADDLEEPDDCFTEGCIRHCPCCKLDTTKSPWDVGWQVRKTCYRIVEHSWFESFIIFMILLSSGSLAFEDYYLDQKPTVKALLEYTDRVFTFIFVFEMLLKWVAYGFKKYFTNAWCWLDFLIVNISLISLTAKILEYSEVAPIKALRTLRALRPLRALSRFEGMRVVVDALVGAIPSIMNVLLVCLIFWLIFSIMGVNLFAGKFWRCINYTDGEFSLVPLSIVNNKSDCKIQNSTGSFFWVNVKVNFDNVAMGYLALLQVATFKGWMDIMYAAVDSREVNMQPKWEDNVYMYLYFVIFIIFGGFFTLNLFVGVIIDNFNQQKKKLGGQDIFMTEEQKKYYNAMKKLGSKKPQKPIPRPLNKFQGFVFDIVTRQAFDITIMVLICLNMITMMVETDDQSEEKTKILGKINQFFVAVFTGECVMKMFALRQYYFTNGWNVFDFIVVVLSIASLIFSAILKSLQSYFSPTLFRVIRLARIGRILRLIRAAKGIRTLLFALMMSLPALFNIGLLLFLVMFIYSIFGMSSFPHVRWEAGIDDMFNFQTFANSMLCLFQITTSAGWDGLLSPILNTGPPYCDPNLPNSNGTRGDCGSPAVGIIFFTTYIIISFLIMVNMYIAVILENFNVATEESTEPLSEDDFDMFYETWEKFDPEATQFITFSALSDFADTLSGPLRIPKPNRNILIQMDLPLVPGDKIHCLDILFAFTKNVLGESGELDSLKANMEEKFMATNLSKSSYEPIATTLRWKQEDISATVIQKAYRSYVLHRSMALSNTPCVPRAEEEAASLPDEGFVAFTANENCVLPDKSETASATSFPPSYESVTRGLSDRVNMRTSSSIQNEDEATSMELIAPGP

Compound | IC50
NS(=O)(=O)c1cc(NC(=O)c2cc(C(F)(F)F)cnc2N2CCOC(C(F)(F)F)CC2)ccn1 (single isomer, unassigned) [Example 119, (S or R)-N-(2-sulfamoylpyridin-4-yl)-5-(trifluoromethyl)-2-(7-(trifluoromethyl)-1,4-oxazepan-4-yl)nicotinamide] | 30 nM
Cc1nc(N2CCOC(C(F)F)C2)c(C(=O)Nc2ccnc(S(N)(=O)=O)c2)cc1Cl (single isomer, unassigned) [Example 124, (S or R)-5-chloro-2-(2-(difluoromethyl)morpholino)-6-methyl-N-(2-sulfamoylpyridin-4-yl)nicotinamide] | 50 nM
Cc1nc(N2CCOC(C(F)F)C2)c(C(=O)Nc2ccnc(S(N)(=O)=O)c2)cc1Cl (single isomer, unassigned) [Example 125, (R or S)-5-chloro-2-(2-(difluoromethyl)morpholino)-6-methyl-N-(2-sulfamoylpyridin-4-yl)nicotinamide] | 144 nM
N#CC1CCN(c2ncc(C(F)(F)F)cc2C(=O)Nc2ccnc(S(N)(=O)=O)c2)C1 (single isomer, unassigned) [Example 129, (S or R)-2-(3-cyanopyrrolidin-1-yl)-N-(2-sulfamoylpyridin-4-yl)-5-(trifluoromethyl)nicotinamide] | 753 nM
N#CC1CCN(c2ncc(C(F)(F)F)cc2C(=O)Nc2ccnc(S(N)(=O)=O)c2)C1 (single isomer, unassigned) [Example 130, (R or S)-2-(3-cyanopyrrolidin-1-yl)-N-(2-sulfamoylpyridin-4-yl)-5-(trifluoromethyl)nicotinamide] | 3880 nM
CC1(C)CN(c2ncc(C(F)(F)F)cc2C(=O)Nc2ccnc(S(N)(=O)=O)c2)CC(C(F)(F)F)O1 (single isomer, unassigned) [Example 135, (R or S)-2-(2,2-dimethyl-6-(trifluoromethyl)morpholino)-N-(2-sulfamoylpyridin-4-yl)-5-(trifluoromethyl)nicotinamide] | 57 nM
CC1(C)CN(c2ncc(C(F)(F)F)cc2C(=O)Nc2ccnc(S(N)(=O)=O)c2)CC(C(F)(F)F)O1 (single isomer, unassigned) [Example 136, (S or R)-2-(2,2-dimethyl-6-(trifluoromethyl)-morpholino)-N-(2-sulfamoylpyridin-4-yl)-5-(trifluoromethyl)nicotinamide] | 494 nM

The next compounds have a lower IC50 than those just listed; values first:

IC50 | Compound
2.9 nM | CC1CN(c2ncc(C(F)(F)F)cc2C(=O)Nc2ccnc(S(N)(=O)=O)c2)CCC(C(F)(F)F)O1 (single isomer, unassigned) [Example 120, 2-[(2S,7R or 2R,7S)-2-methyl-7-(trifluoromethyl)-1,4-oxazepan-4-yl]-N-(2-sulfamoylpyridin-4-yl)-5-(trifluoromethyl)pyridine-3-carboxamide]
20 nM | CC1CN(c2ncc(C(F)(F)F)cc2C(=O)Nc2ccnc(S(N)(=O)=O)c2)CCC(C(F)(F)F)O1 (single isomer, unassigned) [Example 122, 2-((2R,7R or 2S,7S)-2-methyl-7-(trifluoromethyl)-1,4-oxazepan-4-yl)-N-(2-sulfamoylpyridin-4-yl)-5-(trifluoromethyl)nicotinamide]
28 nM | CC1CN(c2ncc(C(F)(F)F)cc2C(=O)Nc2ccnc(S(N)(=O)=O)c2)CCC(C(F)(F)F)O1 (single isomer, unassigned) [Example 123, 2-((2S,7S or 2R,7R)-2-methyl-7-(trifluoromethyl)-1,4-oxazepan-4-yl)-N-(2-sulfamoylpyridin-4-yl)-5-(trifluoromethyl)nicotinamide]
26 nM | CC1CN(c2ncc(C(F)(F)F)cc2C(=O)Nc2ccnc(S(C)(=O)=O)c2)CCC1(F)F (single isomer, unassigned) [Example 148, 2-[(3R or 3S)-4,4-difluoro-3-methyl-1-piperidyl]-N-(2-methylsulfonyl-4-pyridyl)-5-(trifluoro-methyl)pyridine-3-carboxamide]
